Experiment: Safety and tolerability: adverse events, dose-limiting toxicities, MTD, RP2D (Phase 1A/1B)
Type: in vivo
Description: This was an open-label, Phase 1, dose-escalation/dose-expansion study, conducted across six study centres in Australia. The dose-escalation phase evaluated twice-daily (BID) and once-daily (QD) dosing, and the dose-expansion phase evaluated the BID RP2D from the dose-escalation phase and food effects (Fig. 1). The food-effects cohort comprised two sequences: fast followed by fed (sequence 1) and fed followed by fast (sequence 2). […] The decision to proceed to the next dose cohort was determined by the Safety Monitoring Committee and followed a modified 3 + 3 escalation scheme. […] When ≥2 DLTs occurred in the first 23 days of a dose level, the next lower dose level was declared the MTD. Safety was monitored and DLTs were assessed in all dose cohorts. […] The food-effects cohort investigated the effects of food on the PK of pamiparib in patients with advanced solid tumours.
The QD dosing regimen was added as an amendment to the protocol with the purpose of exploring the feasibility of a more convenient regimen.
Safety and tolerability were assessed throughout the study by monitoring adverse events (AEs), serious AEs, clinical laboratory measurements and physical examinations. Adverse events were categorised according to their severity (National Cancer Institute Common Terminology Criteria for Adverse Events v4.03) and relationship to the study treatment.

C[C@]12CCCN1CC1=NNC(=O)c3cc(F)cc4[nH]c2c1c34 [pamiparib]
3 (75.0) n (%): Nausea, AE of any grade (2.5 mg BID (n = 4)) | Treatment-emergent AE: Grade 3 or higher (2.5 mg BID (n = 4)) | Treatment-emergent AE: Serious (2.5 mg BID (n = 4)) | Treatment-related AE (2.5 mg BID (n = 4))
2 (66.7) n (%): Treatment-emergent AE: Serious (5.0 mg BID (n = 3)) | Treatment-related AE (5.0 mg BID (n = 3)) | Ascites, AE of any grade (10 mg BID (n = 3)) | Treatment-emergent AE: Grade 3 or higher (10 mg BID (n = 3)) | Treatment-emergent AE: Serious (10 mg BID (n = 3)) | Abdominal pain, AE of any grade (20 mg BID (n = 3))
0 (0.0) n (%): Back pain, AE of any grade (2.5 mg BID (n = 4)) | Cough, AE of any grade (2.5 mg BID (n = 4)) | Decreased appetite, AE of any grade (2.5 mg BID (n = 4)) | Diarrhoea, AE of any grade (2.5 mg BID (n = 4)) | Dose-limiting toxicity (2.5 mg BID (n = 4)) | Dyspnoea, AE of any grade (2.5 mg BID (n = 4)) | Headache, AE of any grade (2.5 mg BID (n = 4)) | Hypomagnesemia, AE of any grade (2.5 mg BID (n = 4)) | Hypophosphatemia, AE of any grade (2.5 mg BID (n = 4)) | Increased AST, AE of any grade (2.5 mg BID (n = 4)) | Neutropenia, AE of any grade (2.5 mg BID (n = 4)) | Non-cardiac chest pain, AE of any grade (2.5 mg BID (n = 4)) | Pain in extremity, AE of any grade (2.5 mg BID (n = 4)) | Peripheral sensory neuropathy, AE of any grade (2.5 mg BID (n = 4)) | Pleural effusion, AE of any grade (2.5 mg BID (n = 4)) | Treatment-emergent AE: Leading to death (2.5 mg BID (n = 4)) | Treatment-emergent AE: Leading to dose reduction (2.5 mg BID (n = 4)) | Treatment-emergent AE: Leading to treatment discontinuation (2.5 mg BID (n = 4)) | Treatment-related AE: Grade 3 or higher (2.5 mg BID (n = 4)) | Treatment-related AE: Leading to death (2.5 mg BID (n = 4)) | Treatment-related AE: Leading to dose interruption (2.5 mg BID (n = 4)) | Treatment-related AE: Leading to dose modification (2.5 mg BID (n = 4)) | Treatment-related AE: Leading to dose reduction (2.5 mg BID (n = 4)) | Treatment-related AE: Leading to treatment discontinuation (2.5 mg BID (n = 4)) | Treatment-related AE: Serious (2.5 mg BID (n = 4)) | Urinary tract infection, AE of any grade (2.5 mg BID (n = 4)) | Abdominal pain, AE of any grade (5.0 mg BID (n = 3)) | Anaemia, AE of any grade (5.0 mg BID (n = 3)) | Ascites, AE of any grade (5.0 mg BID (n = 3)) | Back pain, AE of any grade (5.0 mg BID (n = 3)) | Constipation, AE of any grade (5.0 mg BID (n = 3)) | Cough, AE of any grade (5.0 mg BID (n = 3)) | Decreased appetite, AE of any grade (5.0 mg BID (n = 3)) | Dose-limiting toxicity (5.0 mg BID (n = 3)) | Dyspnoea, AE of any grade (5.0 mg BID (n = 3)) | Hypoalbuminemia, AE of any grade (5.0 mg BID (n = 3)) | Hypomagnesemia, AE of any grade (5.0 mg BID (n = 3)) | Hypophosphatemia, AE of any grade (5.0 mg BID (n = 3)) | Increased AST, AE of any grade (5.0 mg BID (n = 3)) | Nausea, AE of any grade (5.0 mg BID (n = 3)) | Neutropenia, AE of any grade (5.0 mg BID (n = 3)) | Non-cardiac chest pain, AE of any grade (5.0 mg BID (n = 3)) | Pain in extremity, AE of any grade (5.0 mg BID (n = 3)) | Pyrexia, AE of any grade (5.0 mg BID (n = 3)) | Treatment-emergent AE: Leading to death (5.0 mg BID (n = 3)) | Treatment-emergent AE: Leading to dose reduction (5.0 mg BID (n = 3)) | Treatment-emergent AE: Leading to treatment discontinuation (5.0 mg BID (n = 3)) | Treatment-related AE: Grade 3 or higher (5.0 mg BID (n = 3)) | Treatment-related AE: Leading to death (5.0 mg BID (n = 3)) | Treatment-related AE: Leading to dose interruption (5.0 mg BID (n = 3)) | Treatment-related AE: Leading to dose modification (5.0 mg BID (n = 3)) | Treatment-related AE: Leading to dose reduction (5.0 mg BID (n = 3)) | Treatment-related AE: Leading to treatment discontinuation (5.0 mg BID (n = 3)) | Treatment-related AE: Serious (5.0 mg BID (n = 3)) | Upper respiratory tract infection, AE of any grade (5.0 mg BID (n = 3)) | Urinary tract infection, AE of any grade (5.0 mg BID (n = 3)) | Vomiting, AE of any grade (5.0 mg BID (n = 3)) | Back pain, AE of any grade (10 mg BID (n = 3)) | Decreased appetite, AE of any grade (10 mg BID (n = 3)) | Dose-limiting toxicity (10 mg BID (n = 3)) | Fatigue, AE of any grade (10 mg BID (n = 3)) | Headache, AE of any grade (10 mg BID (n = 3)) | Hypoalbuminemia, AE of any grade (10 mg BID (n = 3)) | Hypophosphatemia, AE of any grade (10 mg BID (n = 3)) | Increased AST, AE of any grade (10 mg BID (n = 3)) | Muscle spasms, AE of any grade (10 mg BID (n = 3)) | Neutropenia, AE of any grade (10 mg BID (n = 3)) | Non-cardiac chest pain, AE of any grade (10 mg BID (n = 3)) | Pain in extremity, AE of any grade (10 mg BID (n = 3)) | Peripheral sensory neuropathy, AE of any grade (10 mg BID (n = 3)) | Pleural effusion, AE of any grade (10 mg BID (n = 3)) | Treatment-emergent AE: Leading to death (10 mg BID (n = 3)) | Treatment-emergent AE: Leading to dose reduction (10 mg BID (n = 3)) | Treatment-emergent AE: Leading to treatment discontinuation (10 mg BID (n = 3)) | Treatment-related AE (10 mg BID (n = 3)) | Treatment-related AE: Grade 3 or higher (10 mg BID (n = 3)) | Treatment-related AE: Leading to death (10 mg BID (n = 3)) | Treatment-related AE: Leading to dose interruption (10 mg BID (n = 3)) | Treatment-related AE: Leading to dose modification (10 mg BID (n = 3)) | Treatment-related AE: Leading to dose reduction (10 mg BID (n = 3)) | Treatment-related AE: Leading to treatment discontinuation (10 mg BID (n = 3)) | Treatment-related AE: Serious (10 mg BID (n = 3)) | Upper respiratory tract infection, AE of any grade (10 mg BID (n = 3)) | Urinary tract infection, AE of any grade (10 mg BID (n = 3)) | Anaemia, AE of any grade (20 mg BID (n = 3))
1 (33.3) n (%): Diarrhoea, AE of any grade (5.0 mg BID (n = 3)) | Fatigue, AE of any grade (5.0 mg BID (n = 3)) | Headache, AE of any grade (5.0 mg BID (n = 3)) | Muscle spasms, AE of any grade (5.0 mg BID (n = 3)) | Peripheral sensory neuropathy, AE of any grade (5.0 mg BID (n = 3)) | Pleural effusion, AE of any grade (5.0 mg BID (n = 3)) | Treatment-emergent AE: Grade 3 or higher (5.0 mg BID (n = 3)) | Treatment-emergent AE: Leading to dose interruption (5.0 mg BID (n = 3)) | Treatment-emergent AE: Leading to dose modification (5.0 mg BID (n = 3)) | Abdominal pain, AE of any grade (10 mg BID (n = 3)) | Anaemia, AE of any grade (10 mg BID (n = 3)) | Constipation, AE of any grade (10 mg BID (n = 3)) | Cough, AE of any grade (10 mg BID (n = 3)) | Diarrhoea, AE of any grade (10 mg BID (n = 3)) | Dyspnoea, AE of any grade (10 mg BID (n = 3)) | Hypomagnesemia, AE of any grade (10 mg BID (n = 3)) | Nausea, AE of any grade (10 mg BID (n = 3)) | Pyrexia, AE of any grade (10 mg BID (n = 3)) | Treatment-emergent AE: Leading to dose interruption (10 mg BID (n = 3)) | Treatment-emergent AE: Leading to dose modification (10 mg BID (n = 3)) | Vomiting, AE of any grade (10 mg BID (n = 3))
4 (100.0) n (%): Treatment-emergent AE (2.5 mg BID (n = 4))
1 (25.0) n (%): Abdominal pain, AE of any grade (2.5 mg BID (n = 4)) | Anaemia, AE of any grade (2.5 mg BID (n = 4)) | Ascites, AE of any grade (2.5 mg BID (n = 4)) | Constipation, AE of any grade (2.5 mg BID (n = 4)) | Fatigue, AE of any grade (2.5 mg BID (n = 4)) | Hypoalbuminemia, AE of any grade (2.5 mg BID (n = 4)) | Muscle spasms, AE of any grade (2.5 mg BID (n = 4)) | Pyrexia, AE of any grade (2.5 mg BID (n = 4)) | Treatment-emergent AE: Leading to dose interruption (2.5 mg BID (n = 4)) | Treatment-emergent AE: Leading to dose modification (2.5 mg BID (n = 4)) | Upper respiratory tract infection, AE of any grade (2.5 mg BID (n = 4)) | Vomiting, AE of any grade (2.5 mg BID (n = 4))
3 (100.0) n (%): Treatment-emergent AE (5.0 mg BID (n = 3)) | Treatment-emergent AE (10 mg BID (n = 3))
